Calls of active or inactive are those of the source. The rule behind the calls is not given here.
Biological target: Ephrin type-B receptor 4 (Homo sapiens) (UniProt P54760)
Assay: blockers of EphB4 ligand binding – biochemical, TNYL-RAW peptide displacement, dose response (AID 835)
Settings: EphB4-ephrin-B2 interaction

Chain of Ephrin type-B receptor 4 (Homo sapiens) (P54760 whole entry, looked up): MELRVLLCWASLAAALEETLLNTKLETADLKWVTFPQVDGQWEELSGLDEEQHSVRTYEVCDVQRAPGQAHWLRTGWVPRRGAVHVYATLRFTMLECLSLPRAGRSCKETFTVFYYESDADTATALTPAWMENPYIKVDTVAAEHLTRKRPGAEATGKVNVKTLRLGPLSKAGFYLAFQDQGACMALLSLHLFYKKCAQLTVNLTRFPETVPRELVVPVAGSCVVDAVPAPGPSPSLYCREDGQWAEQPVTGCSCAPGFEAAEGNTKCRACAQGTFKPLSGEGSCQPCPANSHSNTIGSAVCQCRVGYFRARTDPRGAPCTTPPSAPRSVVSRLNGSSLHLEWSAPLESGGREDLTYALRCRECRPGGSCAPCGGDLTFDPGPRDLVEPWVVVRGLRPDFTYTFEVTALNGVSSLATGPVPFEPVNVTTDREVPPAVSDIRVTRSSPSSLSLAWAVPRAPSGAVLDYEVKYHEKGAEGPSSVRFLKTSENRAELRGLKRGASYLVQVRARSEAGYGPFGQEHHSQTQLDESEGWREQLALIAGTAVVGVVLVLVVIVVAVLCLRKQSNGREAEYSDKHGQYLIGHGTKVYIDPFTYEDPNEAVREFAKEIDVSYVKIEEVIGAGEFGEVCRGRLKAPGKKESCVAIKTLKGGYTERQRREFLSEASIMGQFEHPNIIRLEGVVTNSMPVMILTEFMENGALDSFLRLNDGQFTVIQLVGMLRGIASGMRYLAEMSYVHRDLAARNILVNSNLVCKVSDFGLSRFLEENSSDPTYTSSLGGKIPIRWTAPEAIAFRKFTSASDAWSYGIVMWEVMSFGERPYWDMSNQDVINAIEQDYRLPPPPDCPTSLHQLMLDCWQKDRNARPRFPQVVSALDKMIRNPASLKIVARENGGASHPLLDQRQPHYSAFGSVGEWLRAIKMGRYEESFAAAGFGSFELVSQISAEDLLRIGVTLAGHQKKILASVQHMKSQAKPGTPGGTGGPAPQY

| SMILES | IC50 |
| --- | --- |
| CCn1c(O)c(C=Nc2ccc(N3CCOCC3)cc2)c(=O)n(CC)c1=S | > 79.4 µM (inactive) |
| Oc1[nH]c2ccccc2c1N=Nc1nc2ccccc2s1 | > 79.4 µM (inactive) |
| CCOC(=O)C1=C(c2ccccc2)N2CCS(=O)(=O)N=C2S1 | > 79.4 µM (inactive) |
| CC1=Nc2ccccc2/C1=C\c1nc(-c2ccc(C(F)(F)F)cc2)oc1O | > 79.4 µM (inactive) |
| CC1=Nc2ccccc2/C1=C\c1nc(-c2ccc(F)cc2)oc1O | > 79.4 µM (inactive) |
| CCOc1cccc(N2C(=O)CC(=O)NC2=O)c1 | > 79.4 µM (inactive) |
| COC(=O)CSC1=C(C#N)C(c2ccc(C)cc2)C2=C(CCCC2=O)N1 (centres undefined) | > 79.4 µM (inactive) |
| Clc1cccc(/C=N/Nc2ncnc3ccccc23)c1 | > 79.4 µM (inactive) |
| CCCc1[nH]nc2c1C(c1ccc(OC)c(Cn3nnc4ccccc43)c1)C(C#N)=C(N)O2 (centres undefined) | > 79.4 µM (inactive) |
